This series can be described thus: in vivo. The note with it: male, Beagle, dog, po. The text has this:
In this evaluation 8 male Beagle breed dogs, 6 months to 2 years of age, and at least 10 kg in weight were used. Dogs were housed in individual indoor cages in compliance with standards outlined in the Guide for the Care and Use of Laboratory Animals of the Institute of Laboratory Animal resources, National Research Council. The dogs were fed an appropriate amount of standard commercial dry ration once per day. Fresh tap water in water bowls was provided ad libitum. On the day before the test compounds were administered, food was removed from the dogs by 4:00 pm. Food was withheld until after taking blood samples at the 4 h time point after administration of test materials. Dogs were weighed and ranked by descending weight order and were given physical exams by a veterinarian. The two heaviest dogs were randomly assigned to Group 1 or 2. The second two heaviest dogs were randomly assigned to Group 1 or 2 and so on, until all 8 dogs were placed into either of the two groups. Group 1 with 4 dogs/group, was treated orally with 15 mg/kg of the acetamide test compound and Group 2 was treated orally with 15 mg/kg of the carbonitrile test compound. One week after treatment all dogs were reweighed to ensure correct dosing. Two weeks after treatment, Group 1 was treated orally with 30 mg/kg of the acetamide test compound and Group 2 was treated orally with 30 mg/kg of the carbonitrile test compound. A treatment vial containing an appropriate amount of test compound was provided for each dog. The appropriate amount of vehicle (water containing 0.5% Methocel A4M and 0.01% polysorbate 80) was added to the vial and the contents of the vial were thoroughly mixed. The resultant suspension was withdrawn with an unarmed disposable 12 ml plastic syringe and administered to the dog. Test suspensions were administered to the back of the throat to ensure that they were reliably and completely swallowed by the dog. The vials were rinsed with 0.5 ml vehicle per kg of body weight and the rinsate was administered to the dog. Blood samples were collected at regular time intervals and analyzed for concentration of test compound. The Cmax value (the maximum compound concentration in the plasma) and the Tmax value (the time, after dosing, at which the peak compound concentration was obtained) were determined by observation. For Table I, the term “Acetamide” designates N-methyl-N-[3-(3-methyl-1,2,4-triazolo-[4,3-b]pyridazin-6-yl)phenyl]acetamide; and the term “Carbonitrile” designates 7-(3-pyridyl)pyrazolo[1,5-a]pyrimidine-3-carbonitrile.

In general, Cmax refers to the peak of the concentration-time curve. A word on the Tmax: it is the time at which the peak concentration occurs. For `N#Cc1cnn2c(-c3cccnc3)ccnc12` [Carbonitrile, 7-(3-pyridyl)pyrazolo[1,5-a]pyrimidine-3-carbonitrile], where the note is “15 mg/kg”, the Cmax worked out at 3700 ng/mL and the Tmax is 4.25 h. For the same compound, for the setting “30 mg/kg”, the Cmax was determined as 6390 ng/mL and the Tmax worked out at 8.25 h.

These data come from patent publication US20060270677A1, “Method for the treatment of noise phobia in companion animals” (Wyeth, priority 2005, published 2006).
